Laboratory results taken from patent US10308631B2, “Selective anti-cancer compounds” (NATIONAL UNIVERSITY OF SINGAPORE, priority 2015, dated 2019).

How the values were obtained:
[1] = test system: mitotic marker phospho-histone H3 at serine 10 (pH3 (Ser10)) in transformed BJ cells; test: Immunoblot analysis of mitotic marker pH3 (Ser10), derivatives of Compound 1; assay type: cell-based; details: Homo sapiens, band intensities pH3(Ser10)/β-actin vs DMSO control, 24 h
Experimental: (§1) FIG. 4 compares the ability of Compound 1 (a131), and various derivatives thereof (referred to using their code numbers for brevity; the designated chemical compound for each code number is provided in the chemical examples section below), to inhibit autophagy and/or mitosis. BJ transformed cells were treated with 5 μM of various Compounds as shown, for 24 h. Cells were harvested and total lysates were analysed by detecting the mitotic marker phospho-histone H3 at serine 10 (pH3 (Ser10)) and the autophagosome marker LC3. Antibodies raised against β-actin were used as an internal loading control.
(§2) The ability of Compound 1 to inhibit lysosome function was examined using immunoblotting. HeLa cervical cancer cells were cultured in Dulbecco's modified Eagle's medium (DMEM) supplemented with 10% Fetal Bovine Serum (FBS, Thermo Scientific). The HeLa cells were treated with different concentrations of Compound 1 (0.625, 1.25, 2.5, 5 and 10 μM, dimethyl sulfoxide (DMSO, Kanto Kagaku)), chloroquine (CQ) (1.25, 2.5, 10, 50 and 100 μM, DMSO) or DMSO for 6 h. Then, the treated cells were harvested and lysed in 1% triton lysis buffer [25 mM Tris HCl (pH8.0), 150 mM NaCl, 1% triton-X100, 1 mM dithiothreitol (DTT), protease inhibitor mix (Complete Mini, Roche) and phosphatase inhibitor (PhosphoStop, Roche)]. The proteins in total lysates were boiled with sample buffer (60 mM Tris-HCl (pH 6.8), 25% glycerol, 2% SDS, 14.4 mM 2-mercaptoethanol, 0.1% bromophenol blue) and resolved by 14% tris-glycine sodium dodecyl sulfate polyacrylamide gel electrophoresis (SDS-PAGE) and subjected to immunoblot analysis.
(§3) Defects in lysosome function and inhibition of autophagy can be measured by accumulation of LC3-phosphatidylethanolamine conjugated non-soluble form (LC3-II), which are converted from soluble LC3-I. Thus, antibodies raised against LC3 (Cell Signaling, Cat#4108) were used to determine lysosomal function and integrity. Antibodies raised against phosphorylated histone H3 at serine 10 residue (pH3) (Cell signaling, Cat#3377) were used as the marker for mitotic dysfunction and arrest. Antibodies raised against β-actin (Millipore, Cat#MAB1501) were used as an internal loading control. The inhibitory ability of Compound 1 was also quantitatively compared to CQ.
(§4) Derivatives of Compound 1 were tested to see if they had similar dual activity, or presented only one of the activities of Compound 1. The protocol for immunoblot analysis described in Biology Example 1 was applied to the additional indicated compounds.
(§5) Activities of compounds were determined by two independent experiments. First, Compounds were classified according to the intensity of increase in each of the mitotic marker phospho-histone H3 at serine 10 (pH3 (Ser 10)) and the autophagosome marker LC3, respectively, at 1.25 μM, when compared with 1.25 μM Compound 1 (a131).
(§6) Compounds classified “++” on either “mitosis” or “inhibits lysosome” show similar increase in each of the mitotic marker phospho-histone H3 at serine 10 (pH3 (Ser10)) and the autophagosome marker LC3, respectively, at 2.5 μM, when compared with 1.25 μM Compound 1 (a131); and compounds classified “+” on either “mitosis” or “inhibits lysosome” show similar increase in each of the mitotic marker phospho-histone H3 at serine 10 (pH3 (Ser10)) and the autophagosome marker LC3, respectively, at a concentration range of 5-10 μM, when compared with 1.25 μM Compound 1 (a131).
Compounds classified “+/−” on either “mitosis” or “inhibits lysosome” show less increase in each of the mitotic marker phospho-histone H3 at serine 10 (pH3 (Ser10)) and the autophagosome marker LC3, respectively, at a concentration range of 5-10 μM, when compared with 1.25 μM Compound 1 (a131).
Next, the ability of Compound 1 and its derivatives to induce mitotic arrest in transformed BJ cells was quantified as the fold induction of band intensities [pH3(Ser10)/β-actin] in comparison with DMSO control. […]

[2] = test system: pH3 (Ser10) and LC3 in BJ transformed cells; test: Immunoblot classification of compounds by pH3 and LC3 (FIG. 4); assay type: cell-based, human; details: 5 μM, 24 h
Experimental: as §1, §4

[3] = test system: autophagosome marker LC3 (LC3 II/LC3 I) in transformed BJ cells; test: Immunoblot analysis of autophagosome marker LC3 (lysosome function), derivatives of Compound 1; assay type: cell-based; details: Homo sapiens, band intensities LC3 II/LC3 I vs DMSO control, 24 h
Experimental: as §1, §2, §3, §4, §5, §6
Compounds classified “+/−” on either “mitosis” or “inhibits lysosome” show less increase in each of the mitotic marker phospho-histone H3 at serine 10 (pH3 (Ser10)) and the autophagosome marker LC3, respectively, at a concentration range of 5-10 μM, when compared with 1.25 μM Compound 1 (a131). […]

[4] = test system: oncogene-transformed BJ cells; test: PI staining and FACS analysis, sub-G1 cell death; assay type: cell-based, human; details: for cell death (population of cells in sub-G1) / cell death: 48 h; for cell death (population of cells in sub-G1): Compound 1 2.5 μM, other Group 1 and Group 2 compounds 10 μM, Compound 3 5 μM (FIG. 5A)
Experimental: FIG. 5A is a histogram showing the ability of Compound 1 (a131) and its derivatives Compound 2 (a156), Compound 16 (b5), Compound 17 (b9), all in Group 1; Compound 29 (a219), Compound 13 (b12), Compound 11 (b15), Compound 12 (b16), Compound 25 (a166), all in Group 2; and Compound 3 (a159) from Group 3, to induce cancer selective cell death. Isogenic non-transformed (normal) and oncogene-transformed BJ cells were treated with each compound for 48 h and cells were stained with propidium iodide (PI) and subjected to FACS analysis. The percentage of cells in sub-G1 phase is indicative of the extent of cell death. […] In contrast, the ability of the compounds in Groups 2 and 3 to induce cancer selective cell death was markedly compromised (or reduced).
The Compounds 25 (a166) and 3 (a159) were selected from Group 2 and Group 3, respectively. Isogenic non-transformed normal and oncogene-transformed BJ cells were treated with or without 0.3 μM or 0.6 μM Compound 3 (a159) alone or together with 1.25 μM Compound 25 (a166) for 48 h. Cells were stained with propidium iodide (PI) and subjected to FACS analysis.
Isogenic non-transformed and oncogene-transformed human fibroblast BJ cell lines were cultured in DMEM supplemented with 10% FBS. The cells were treated with Compound 1 (2.5 μM, DMSO). 48 h after treatment, the cells were fixed with ethanol at −30° C. overnight and stained with 20 μg/mL propidium iodide (PI) and 10 μg/mL RNase A for 30 min. These cells were then subjected to flow cytometry (FACS) analysis using MACSQuant (Miltenyi Biotec) to count the percentage of apoptotic cells in sub-G1 peak.
The above procedure was repeated for Group 1 Compounds 2, 16 and 17, Group 2 Compounds 29, 13, 11, 12 and 25 at a concentration of 10 μM, and Group 3 Compound 3 at a concentration of 5 μM.
Isogenic non-transformed normal and oncogene-transformed BJ cells were cultured as in Biology Example 3. The cells were treated with a combination of Compound 3 (Group 3, at a concentration of 0.3 μM or 0.6 μM), and Compound 25 (Group 2, at a concentration of 1.25 μM) for 48 hours. Controls using DMSO, Compound 3 and Compound 25 alone (at the concentrations mentioned above) were also performed.

| SMILES | fold induction at 5 µM [1] | Inhibition of lysosome function and/or mitosis (FIG. 4) [2] | fold induction at 5 µM [3] | cell death (population of cells in sub-G1) [4] | cell death ([4]; Compound 3 alone at 0.3 μM) | cell death ([4]; Compound 3 alone at 0.6 μM) | population of cells in sub-G1 ([4]; 2.5 and 5 μM, 24 h (FIG. 9A panels g-i)) |
| --- | --- | --- | --- | --- | --- | --- | --- |
| CN1CCN(CC(=O)n2cc(/C(C#N)=C/c3cccc4cnccc34)c3ccccc32)CC1 [Compound 16, (Z)-3-(isoquinolin-5-yl)-2-(1-(2-(4-methylpiperazin-1-yl)acetyl)-1H-indol-3-yl)acrylonitrile] | 11.8 | exhibit the dual properties of inhibiting both lysosome function and mitosis | 5 | selectively induced cell death in oncogene-transformed BJ cells while sparing normal counterparts | – | – | – |
| N#C/C(=C\c1cccc2ncccc12)c1c[nH]c2ccccc12 [Compound 3, (Z)-2-(1H-indol-3-yl)-3-(quinolin-5-yl)acrylonitrile] | 10.5 | inhibit mitosis only | 0.7 | significantly induced cell death | negligible effect | −15% | – |
| N#C/C(=C\c1cccc2cnccc12)c1c[nH]c2ccccc12 [Compound 1, (Z)-2-(1H-indol-3-yl)-3-(isoquinolin-5-yl)acrylonitrile] | 7.3 | exhibit the dual properties of inhibiting both lysosome function and mitosis | 5 | selectively induced cell death in oncogene-transformed BJ cells while sparing normal counterparts | – | – | massive increase in population of oncogene-transformed BJ cells in sub-G1 |
